Activity calls are given as the source filed them.
Assays:
Escherichia coli = assay: microbe, parasite or virus in culture
Bcl-2-related protein A1 = molecular target: T1, Bcl-2-related protein A1 (Mus musculus, UniProt Q07440); format: functional;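 note: confirmatory dose–response counterscreen on Bfl-1, used to check hits from a UBC13 polyubiquitin inhibitor campaign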
T1 sequence (Q07440 whole entry): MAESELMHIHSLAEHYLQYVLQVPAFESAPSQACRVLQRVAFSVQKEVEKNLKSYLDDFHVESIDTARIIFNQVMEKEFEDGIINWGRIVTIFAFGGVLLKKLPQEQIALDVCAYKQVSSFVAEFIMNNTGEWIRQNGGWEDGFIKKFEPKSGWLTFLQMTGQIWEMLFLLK

[1] = molecular target: T2, Ubiquitin-conjugating enzyme E2 N (Homo sapiens, UniProt P61088); format: functional
T2 sequence (P61088 whole entry): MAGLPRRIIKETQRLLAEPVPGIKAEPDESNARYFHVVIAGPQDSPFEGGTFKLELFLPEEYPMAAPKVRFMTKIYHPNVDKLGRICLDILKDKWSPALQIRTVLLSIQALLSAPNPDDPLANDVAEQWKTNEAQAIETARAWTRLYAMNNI

[2] = molecular target: T2, Ubiquitin-conjugating enzyme E2 N; format: functional; remark: listed apart in the source
[3] = molecular target: Peroxisome proliferator-activated receptor gamma/Nuclear receptor coactivator 1 (Homo sapiens, UniProt P37231); assay: (§1) TR-FRET dose response biochemical High Throughput Screening assay for agonists of the steroid receptor coactivator 1 (SRC-1) recruitment by the peroxisome proliferator-activated receptor gamma (PPAR gamma): non-selective agonists. [Related pubchem assays (depositor defined):AID1300, AID1808, AID504735, AID631]; format: protein assay
[4] = molecular target: Peroxisome proliferator-activated receptor gamma/Nuclear receptor coactivator 3 (Homo sapiens, UniProt P37231); assay: as §1, with “3 (SRC-3)” for “1 (SRC-1)”, “assays: 1301 (Confirmation screen.), 1048 (Primary screen.)]” for “assays (depositor defined):AID1300, AID1808, AID504735, AID631]”; format: functional
[5] = molecular target: Peroxisome proliferator-activated receptor gamma/Nuclear receptor coactivator 2 (Homo sapiens, UniProt P37231); assay: TR-FRET dose response biochemical High Throughput Screening assay for agonists of the steroid receptor coactivator 2 (SRC-2) recruitment by the peroxisome proliferator-activated receptor gamma (PPAR gamma): non-selective agonists. [Related pubchem assays: 1297, 1032 ]; format: functional
[6] = HEK-293T cell viability reduction – luminescence, B-cell screen hits, cytotoxicity control for BCR NF-kB inhibitor project, dose response (AID 489021); format: functional, cell-based;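 note: HEK-293T cells carrying an NF-kB luciferase reporter; cells exposed to compound for about 14 hours before viability readout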
Hexokinase HKDC1 = Hexokinase HKDC1 (Homo sapiens, UniProt Q2TB90); assay: activation of HKDC1 glucose phosphorylation – biochemical, W721R variant, dose response (AID 504730); format: functional
Hexokinase-1 = Hexokinase-1 (Homo sapiens, UniProt P19367); assay: HK1 enzyme activation by HKDC1 hits – biochemical, selectivity assay for HKDC1 activator project, dose response (AID 504762); format: functional
[7] = molecular target: 26S proteasome non-ATPase regulatory subunit 14 (Homo sapiens, UniProt O00487); assay: inhibition of proteasome subunit RPN11 – biochemical, fluorescence polarization, uHTS hits, confirmation (AID 602368); format: functional
[8] = molecular target: 72 kDa type IV collagenase (Homo sapiens, UniProt P08253); assay: Dose Response validation of uHTS RPN11 inhibitor hits using a MMP-2 Fluorescence assay.; format: functional
Prothrombin = Prothrombin (Bos taurus, UniProt P00735); assay: thrombin protease inhibitors – biochemical, fluorescence polarization, uHTS hits, dose response (AID 602369); format: functional

Chain of Peroxisome proliferator-activated receptor gamma/Nuclear receptor coactivator 1 (P37231 whole entry): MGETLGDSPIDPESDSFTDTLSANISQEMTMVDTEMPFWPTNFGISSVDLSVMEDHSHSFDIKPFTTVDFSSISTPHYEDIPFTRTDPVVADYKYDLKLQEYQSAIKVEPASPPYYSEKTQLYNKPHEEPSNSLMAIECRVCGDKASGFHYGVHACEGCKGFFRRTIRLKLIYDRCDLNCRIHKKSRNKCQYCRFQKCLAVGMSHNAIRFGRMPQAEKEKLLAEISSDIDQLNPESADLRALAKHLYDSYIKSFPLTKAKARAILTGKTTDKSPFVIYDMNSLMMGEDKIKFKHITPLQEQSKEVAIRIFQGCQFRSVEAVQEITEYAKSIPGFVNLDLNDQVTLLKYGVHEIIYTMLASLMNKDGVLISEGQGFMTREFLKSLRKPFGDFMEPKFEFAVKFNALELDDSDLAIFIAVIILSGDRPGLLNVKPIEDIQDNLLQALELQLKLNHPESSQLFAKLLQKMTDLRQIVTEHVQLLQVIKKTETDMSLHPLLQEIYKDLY
Chain of Peroxisome proliferator-activated receptor gamma/Nuclear receptor coactivator 1 (Q15788 whole entry, further chain): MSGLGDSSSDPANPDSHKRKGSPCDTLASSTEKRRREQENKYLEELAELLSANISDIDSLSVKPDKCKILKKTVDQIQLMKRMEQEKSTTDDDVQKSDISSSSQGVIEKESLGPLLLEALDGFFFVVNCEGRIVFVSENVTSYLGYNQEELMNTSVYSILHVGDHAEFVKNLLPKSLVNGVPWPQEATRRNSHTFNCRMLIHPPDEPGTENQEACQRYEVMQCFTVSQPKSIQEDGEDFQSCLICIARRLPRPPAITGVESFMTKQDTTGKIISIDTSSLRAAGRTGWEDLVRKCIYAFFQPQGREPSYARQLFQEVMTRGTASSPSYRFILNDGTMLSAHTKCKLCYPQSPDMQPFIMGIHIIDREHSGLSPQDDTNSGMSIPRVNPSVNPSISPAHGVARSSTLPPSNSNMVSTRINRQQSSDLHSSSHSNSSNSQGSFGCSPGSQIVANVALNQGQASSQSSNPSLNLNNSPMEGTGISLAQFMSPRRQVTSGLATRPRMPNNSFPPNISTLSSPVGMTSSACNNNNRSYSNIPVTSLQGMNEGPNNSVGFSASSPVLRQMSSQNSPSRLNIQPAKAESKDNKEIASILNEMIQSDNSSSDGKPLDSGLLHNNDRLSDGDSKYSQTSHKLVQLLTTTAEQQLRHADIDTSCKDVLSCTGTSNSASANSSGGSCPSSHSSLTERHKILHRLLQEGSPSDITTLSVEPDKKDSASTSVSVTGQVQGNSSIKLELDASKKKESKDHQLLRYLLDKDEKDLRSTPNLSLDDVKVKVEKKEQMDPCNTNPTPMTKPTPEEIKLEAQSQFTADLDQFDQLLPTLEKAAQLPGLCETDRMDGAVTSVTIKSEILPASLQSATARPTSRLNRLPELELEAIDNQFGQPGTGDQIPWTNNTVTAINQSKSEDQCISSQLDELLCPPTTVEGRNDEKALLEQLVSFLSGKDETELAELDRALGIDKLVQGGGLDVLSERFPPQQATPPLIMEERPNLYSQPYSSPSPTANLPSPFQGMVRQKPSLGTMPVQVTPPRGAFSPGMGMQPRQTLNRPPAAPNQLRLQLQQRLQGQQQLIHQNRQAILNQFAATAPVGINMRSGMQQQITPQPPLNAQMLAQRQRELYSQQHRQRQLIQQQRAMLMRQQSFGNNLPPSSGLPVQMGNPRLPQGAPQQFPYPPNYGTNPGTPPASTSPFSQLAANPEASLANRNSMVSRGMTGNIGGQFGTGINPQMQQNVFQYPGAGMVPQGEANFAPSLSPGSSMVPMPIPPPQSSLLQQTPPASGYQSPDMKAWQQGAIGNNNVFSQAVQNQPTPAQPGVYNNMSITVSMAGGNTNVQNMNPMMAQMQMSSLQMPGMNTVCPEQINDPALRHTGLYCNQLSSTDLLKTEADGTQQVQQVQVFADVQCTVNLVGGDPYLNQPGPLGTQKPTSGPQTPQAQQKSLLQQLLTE
Chain of Peroxisome proliferator-activated receptor gamma/Nuclear receptor coactivator 3 (P37231 whole entry): as the sequence (P37231 whole entry) above
Chain of Peroxisome proliferator-activated receptor gamma/Nuclear receptor coactivator 3 (Q9Y6Q9 whole entry, further chain): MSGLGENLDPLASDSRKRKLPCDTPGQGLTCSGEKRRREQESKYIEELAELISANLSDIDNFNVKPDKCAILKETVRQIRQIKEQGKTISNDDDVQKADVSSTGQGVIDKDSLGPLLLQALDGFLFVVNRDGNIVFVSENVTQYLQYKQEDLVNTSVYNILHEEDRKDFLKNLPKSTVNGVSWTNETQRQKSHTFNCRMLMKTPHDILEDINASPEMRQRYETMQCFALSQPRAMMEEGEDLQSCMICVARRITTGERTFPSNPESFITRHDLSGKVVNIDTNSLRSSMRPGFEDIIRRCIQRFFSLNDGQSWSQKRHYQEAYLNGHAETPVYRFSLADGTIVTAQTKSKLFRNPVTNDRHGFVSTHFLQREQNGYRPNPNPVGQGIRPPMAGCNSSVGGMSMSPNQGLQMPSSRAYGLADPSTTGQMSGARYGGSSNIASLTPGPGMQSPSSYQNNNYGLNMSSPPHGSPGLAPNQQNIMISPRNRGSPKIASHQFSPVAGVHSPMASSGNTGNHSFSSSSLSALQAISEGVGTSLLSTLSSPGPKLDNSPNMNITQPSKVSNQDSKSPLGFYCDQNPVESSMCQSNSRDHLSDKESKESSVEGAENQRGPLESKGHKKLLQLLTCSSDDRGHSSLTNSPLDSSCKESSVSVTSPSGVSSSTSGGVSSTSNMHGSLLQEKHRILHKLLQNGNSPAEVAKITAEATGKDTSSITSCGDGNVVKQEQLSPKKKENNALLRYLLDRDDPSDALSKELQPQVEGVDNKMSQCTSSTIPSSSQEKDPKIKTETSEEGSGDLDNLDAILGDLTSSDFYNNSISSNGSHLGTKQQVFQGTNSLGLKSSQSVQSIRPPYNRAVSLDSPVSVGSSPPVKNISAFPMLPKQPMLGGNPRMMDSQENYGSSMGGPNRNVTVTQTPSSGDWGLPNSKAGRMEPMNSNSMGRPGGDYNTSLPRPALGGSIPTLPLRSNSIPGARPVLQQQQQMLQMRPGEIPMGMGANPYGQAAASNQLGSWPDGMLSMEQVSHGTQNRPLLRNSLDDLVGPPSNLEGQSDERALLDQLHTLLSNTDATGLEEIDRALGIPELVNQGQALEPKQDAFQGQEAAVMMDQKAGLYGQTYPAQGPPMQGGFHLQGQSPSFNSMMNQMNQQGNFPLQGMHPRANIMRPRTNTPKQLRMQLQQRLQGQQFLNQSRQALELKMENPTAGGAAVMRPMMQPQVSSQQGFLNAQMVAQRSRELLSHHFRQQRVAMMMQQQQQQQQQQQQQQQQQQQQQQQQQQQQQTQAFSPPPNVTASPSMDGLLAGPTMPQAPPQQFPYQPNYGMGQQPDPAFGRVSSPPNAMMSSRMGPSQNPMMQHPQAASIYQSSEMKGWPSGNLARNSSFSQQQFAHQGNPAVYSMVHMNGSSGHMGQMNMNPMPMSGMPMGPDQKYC
Chain of 26S proteasome non-ATPase regulatory subunit 14 (O00487 whole entry): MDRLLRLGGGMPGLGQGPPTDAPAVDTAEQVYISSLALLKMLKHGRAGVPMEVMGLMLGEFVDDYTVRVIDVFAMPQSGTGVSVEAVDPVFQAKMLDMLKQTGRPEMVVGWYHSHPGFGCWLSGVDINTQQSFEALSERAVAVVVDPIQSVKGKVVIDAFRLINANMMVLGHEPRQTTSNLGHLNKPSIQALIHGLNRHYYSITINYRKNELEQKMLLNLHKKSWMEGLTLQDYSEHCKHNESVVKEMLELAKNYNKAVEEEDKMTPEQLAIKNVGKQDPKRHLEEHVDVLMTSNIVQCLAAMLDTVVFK
Chain of Hexokinase HKDC1 (Q2TB90 whole entry): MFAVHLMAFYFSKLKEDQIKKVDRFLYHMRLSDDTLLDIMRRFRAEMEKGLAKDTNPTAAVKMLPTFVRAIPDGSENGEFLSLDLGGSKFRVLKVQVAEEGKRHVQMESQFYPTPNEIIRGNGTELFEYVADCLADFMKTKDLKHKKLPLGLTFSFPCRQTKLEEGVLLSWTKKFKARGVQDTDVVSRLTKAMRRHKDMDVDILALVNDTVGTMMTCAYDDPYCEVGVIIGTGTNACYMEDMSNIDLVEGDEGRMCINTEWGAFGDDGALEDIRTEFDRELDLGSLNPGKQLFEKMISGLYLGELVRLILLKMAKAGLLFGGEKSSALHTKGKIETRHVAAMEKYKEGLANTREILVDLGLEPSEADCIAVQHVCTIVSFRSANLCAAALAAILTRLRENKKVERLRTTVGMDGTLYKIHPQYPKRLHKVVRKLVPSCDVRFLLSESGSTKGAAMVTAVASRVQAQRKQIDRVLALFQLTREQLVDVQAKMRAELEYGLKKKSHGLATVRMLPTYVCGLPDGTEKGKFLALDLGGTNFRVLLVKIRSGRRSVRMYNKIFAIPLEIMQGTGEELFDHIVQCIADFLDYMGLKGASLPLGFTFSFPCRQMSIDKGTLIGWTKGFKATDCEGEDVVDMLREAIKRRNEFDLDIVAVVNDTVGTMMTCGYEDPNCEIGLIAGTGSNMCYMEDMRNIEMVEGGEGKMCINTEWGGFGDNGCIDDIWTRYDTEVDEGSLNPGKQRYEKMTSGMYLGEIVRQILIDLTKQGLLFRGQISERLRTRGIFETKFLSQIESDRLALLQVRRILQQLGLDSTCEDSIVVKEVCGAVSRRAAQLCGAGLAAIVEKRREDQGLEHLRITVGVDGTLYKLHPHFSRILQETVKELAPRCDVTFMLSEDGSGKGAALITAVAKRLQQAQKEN

Structure (SMILES) | AC50 (Escherichia coli) | IC50 [1] | EC50 [3] | EC50 [4] | EC50 [5] | also measured
CCc1ccc2c(COC(=O)C3CC(=O)N(CCc4ccccc4)C3)cc(=O)oc2c1 (stereo not drawn) | 133 µM (active) |  |  |  |  | 
O=C(CCCn1c(=O)c2ccccc2n(Cc2cccc(F)c2)c1=O)NC1CCN(Cc2ccccc2)CC1 |  | 2.11 µM (active) |  |  |  | IC50 (Bcl-2-related protein A1): > 20 µM (inactive); IC50 [2]: 1.31 µM (active)
CCN1CCN(C(=O)CSc2cc(=O)n(CC)c3ccccc23)CC1 |  | > 20 µM (inactive) | > 79.4 µM (inactive) | > 79.4 µM (not active) | > 79.4 µM (not active) | IC50 [6]: > 80 µM (inactive)
COc1ccc(-c2[nH]c(-c3ccc(SC)cc3)nc2SCC(=O)Nc2nccs2)cc1 |  |  |  |  |  | EC50 (Hexokinase HKDC1): 10.9 µM (active); EC50 (Hexokinase-1): 16.3 µM (active); IC50 [7]: 19.6 µM (active); IC50 [8]: > 100 µM (inactive); IC50 (Prothrombin): 49.9 µM (active)
CCOC(=O)CSc1cc(=O)n(CC)c2ccccc12 |  |  | > 79.4 µM (inactive) | > 79.4 µM (not active) | > 79.4 µM (not active) | 
Cc1ccc(S(=O)(=O)CCNC(=O)Cc2ccc(Cl)cc2)cc1 | 46.1 µM (active) |  |  |  |  | 
